Measured values published in patent publication US20080292550A1, “Fluorinated 3'-Deoxythymidine Derivatives, a Method for Their Preparation and Their Use” (MAX-DELBRUECK-CENTRUM FUER MOLEKULARE MEDIZIN, priority 2005, published 2008).
Entries after “also recorded” stand apart in the source; their conditions may differ. Read-outs that look alike come from different tables or passages of the source.

Key:
B cell lymphoma = details: 0.1 MBq, B cell lymphoma mouse model; cited from earlier work
fibrosarcoma = details: about 2.5 MBq, fibrosarcoma mouse model; cited from earlier work
[1] = Wagner et al., Cancer Research 2003; cited from earlier work
[2] = quenched product
melanoma = experiment: Organ activities in melanoma-bearing nude mice
Source text: A prognosis as to the tumor/background ratio in a tumor image can be made by means of the tumor/blood radioactivity ratio of a tracer in a tumor model.

[3] = tested on: non-parvicellular lung tumor; experiment: Organ activities in lung tumor-bearing nude mice; details: about 0.5 MBq non-quenched tracer i.v.
[4] = about 0.5 MBq quenched tracer i.v., after 60 min

Cc1cn([C@H]2C[C@H]([18F])[C@@H](CO)O2)c(=O)[nH]c1=O [^18F-FLT, 3′-^18F-fluoro-3′-deoxythymidine]
tumor/blood radioactivity ratio (B cell lymphoma): about 7
tumor/blood radioactivity ratio (fibrosarcoma): 1.8
storage in the spleen of mice [1]: Marked storage

[N-]=[N+]=N[C@H]1C[C@H](n2cc(C([18F])[18F])c(=O)[nH]c2=O)O[C@@H]1CO [α,α-^18F2-AZT, 5,5-^18F-difluoro-3′-deoxy-3′-azidothymidine]
stability in serum ([2]; serum at room temperature (21° C.)): A similar result
stability in serum ([2]; serum in an incubator at 37° C.): markedly improved stability
tumor/blood radioactivity ratio (melanoma; [4]): 3.2
tumor/organ radioactivity ratios (melanoma; [4]): high
storage of 18F in bone (melanoma; about 0.5 MBq quenched tracer i.v., compared with non-quenched product): lower
PET imaging of tumor (melanoma; melanoma mouse model): allows PET imaging of melanoma in a mouse model
passage of the blood-brain barrier (melanoma; mouse animal experiments): passes the blood-brain barrier; also recorded: capable of passing the blood-brain barrier
storage in tumor (melanoma; mouse model, lung tumor and melanoma (summary)): stored in lung tumor and in melanoma
increase of the fluoride concentration (isotonic NaCl solution at 21° C., over 4 hours, quenched with triethylamine): scarcely any increase
stability in isotonic NaCl solution (isotonic NaCl solution, room temperature, before quenching step): stable
increase of the F ion concentration (isotonic NaCl solution, room temperature, within 1 hour, before quenching step): 3 to 4.5%
absorption of 18F in bone tissue ([3]; 30 and 60 min): particularly high
storage of activity in organs ([3]; organ activities after 30 min and 60 min): activity was stored in the tumor, in the spleen and in the colon
